# In patent US20200030288A1, “STATIN FOR PREVENTION/REDUCTION OF ISCHEMIA-RELATED DAMAGE” (Fundacio Institut De Recerca De L'Hospial De La Santa Creu …, priority 2017, published 2020):
# Legend:
# [1] = system: mouse model for myocardial ischemia; experiment: Mouse model of myocardial ischemia by coronary ligation: infarct size and 8-OH-dG oxidative damage; assay type: in vivo, Male CH3 mice; conditions: single i.p. dose 15 min after coronary ligation, 45 min ischemia; for reduction of size of infarction (% of total LV wall): vs vehicle-control
# Protocol: (§1) Complete LAD coronary artery ligation was performed as follows. Male CH3 mice (8-10 weeks old, weighing 25-30 g) were intubated and anesthesized with a mixture of O2/isoflurane and mechanically ventilated (rate 90 breaths/min, tidal volume 0.1 mL). Rectal temperature was continuously monitored throughout the surgery and maintained within 37-38° C. using a heat pad and heat lamp. An anterior thoracotomy was performed; the heart was exposed and the LAD coronary artery was occluded with an intramural stitch (7-0 silk suture; consistent ligation of the left coronary artery as it emerges from under the left atrium) for 45 minutes. Success of complete coronary ligation was verified by electrocardiographic visualization of the ST-elevation-MI pattern that was monitored by high frequency ultrasounds with the Vevo2100 from Visualsonics and by the visualization of a pale, hypokinetic ventricle distal to the site of occlusion.
# Ischemia was continued for another 30 min after administration of the single dose (i.e. altogether 45 min of ischemia), then mice were sacrificed and the heart was carefully excised for infarct size analysis.
# (§2) Infarct size was determined by morphometric analysis. For this purpose, all mouse hearts were immersed in fixative solution (4% paraformaldehyde), embedded in OCT compound and cross-sectioned from apex to base (10 μm thick sections 200 μm distanced). Sections were stained with haematoxylin and eosin and morphometric infarct size analysis was determined using image analysis software (ImageJ, NIH). Infarct size was calculated by the sum of myocardial infarct areas between sections and expressed as a percentage of total LV wall. Three measurements per section were determined.
# In addition, myocardial oxidative damage was also assessed. For this purpose, ischemic myocardial tissue was cut into 5-μm-thick slices for 8-OH-dG (Abcam ab48508) staining, a measurement indicative of oxidative stress-induced DNA-damage. Staining was calculated by a single blinded observer from an average of 5-fields/animal as % of stained area. Images were captured by Nikon Eclipse 80i microscope and digitized by Retiga 1300i Fast camera.
# MCP-1/CCL2 = MCP-1/CCL2 mRNA and protein expression in pig myocardium; assay type: in vivo, pigs
# Protocol: The myocardium of pigs included in Example 1 and Example 2 was obtained, pulverized and processed with Tripure or lyses buffer for mRNA and protein isolation as detailed in Example 5 and Example 6, respectively. Both the mRNA levels and protein expression of MCP-1 were assessed. The threshold cycle (Ct) values were determined and normalized to the housekeeping gene 18 SrRNA in order to adjust for equal amounts of RNA whereas β-actin was used as protein loading control.
# [2] = system: hypercholesterolemic pigs with myocardial ischemia; experiment: Neutrophil infiltration (anti-Neutrophil Elastase staining) in ischemic myocardium of hypercholesterolemic pigs; assay type: in vivo; conditions: single i.v. dose 15 min after onset of ischemia, vs controls
# Protocol: To this end, ischemic myocardial tissue of all hypercholesterolemic pigs included in Example 12 was obtained, embedded in OCT, and stained for neutrophils detection (anti-Neutrophil Elastase; Abcam). Staining was calculated by a single blinded observer from an average of 5-fields/animal as % of stained area. Images were captured by Nikon Eclipse 80i microscope and digitized by Retiga 1300i Fast camera.
# rat model for ischemia = experiment: Rat model of myocardial infarction by coronary ligation: scar size 30 days after ischemia; assay type: in vivo, male SD rats; conditions: single dose 0.3 mg/kg 15 min after onset of ischemia; 30 days post-ischemia induction; vs vehicle-controls
# Protocol: The study was performed in male SD rats (8-10 weeks old, weighing 250-300 g; Jackson Laboratory). MI was induced by LAD coronary artery ligation for 45 min. […] Afterwards hearts were carefully excised for morphometric assessment of infarct size.
# [3] = system: TLR4, TF and MCP-1 in PBMC; experiment: TLR4, TF and MCP-1 expression in circulating PBMC of ischemic pigs; assay type: in vivo
# Protocol: Blood samples were also collected in EDTA at baseline (prior to ischemia) and after 90 min of ischemia from the femoral artery for PBMC isolation by the Ficoll method. To this end, 20 ml of blood were collected into EDTA tubes at three tested time-points (0, 30, and 90 min) in all animals. All blood samples were immediately subjected to Ficoll-paque Plus (Amersham Biosciences) density gradient centrifugation to isolate PBMCs. Samples were counted and then directly frozen in liquid nitrogen and stored at −80° C. until mRNA and protein isolation as described in Example 5 and Example 6. The mRNA expression level of the inflammatory markers related to innate immunity TLR4 (Toll-like receptor 4) and MCP-1, as well as […] (tissue factor) were determined by Real Time PCR analyses whereas protein expression of MCP-1 was also assessed. The threshold cycle (Ct) values were determined and normalized to the housekeeping gene 18SrRNA in order to adjust for equal amounts of RNA whereas Ponceau red was used for protein loading control.
# caspase-3 = experiment: Caspase-3 activation (cleaved / total caspase-3) in pig myocardium by Western blot; assay type: in vivo, pigs
# Protocol: Myocardial tissue of all pigs included in Example 1 and Example 2 was obtained, pulverized and processed with lysis buffer for protein isolation as detailed in Example 6. Protein was quantified by the Pierce method and Western Blot analysis was performed to assess the levels of phosphorylated p53 (Ser15), total p53, cleaved caspase-3 and total caspase-3. The ratios phosphorylated p53/total p53 and cleaved Casp3/total caspase3 were calculated to ascertain how much of protein was activated.
# eNOS = eNOS activation (P-eNOS Ser1177 / total eNOS) in pig myocardium by Western blot; assay type: in vivo, pigs; conditions: ischemic myocardium
# From the text: (P-eNOS) or activated eNOS.
# [4] = system: swine model of myocardial ischemia; conditions: 0.3 mg/kg i.v. at 15 min of ischemia
# From the text: Cardiac rhythm, arterial oxymetry, and arterial pressure were continuously monitored during the procedure. Just before starting the procedure a perfusion of amiodarone and lidocaine was initiated as prophylaxis for malignant left ventricular arrhythmias. All animals of the study were subjected to the same antiarrhythmic pharmacological approach allowing a direct comparison between the groups. By percutaneous approach and fluoroscopy guidance ischemia was induced by complete coronary balloon occlusion of the mid-left anterior descending coronary artery. Contrast angiographies were performed to ensure total coronary occlusion.
# Control animals were given intravenous placebo (saline) at 15 min of ischemia. Blood samples (serum) for further assessment of biomarkers of cardiac damage were taken at baseline (i.e. before MI induction or at time=0 min), and at 30 min, 60 min and 90 min after MI induction (ischemia).
# Upon taking the 90 min blood sample, the pigs were sacrificed without reperfusion to obtain myocardial tissue for molecular studies and histology.
# The concentration of IMA (Ischemic Modified Albumin), CFABP (Cardiac Fatty Acid Binding Protein) and Myoglobin was determined by the respective pig ELISA kits in the blood samples taken 30 min, 60 min and 90 min after MI induction and compared to their baseline values (prior to ischemia induction). These proteins were chosen based on the rationale that they are early markers for cardiac damage assessment due to ischemia.
# RhoA = RhoA total and cytosolic/membrane fractions in ischemic myocardium by Western blot; assay type: in vivo, pigs
# Protocol: After the ischemic period, the animals' hearts were arrested with potassium chloride and rapidly excised. […] In addition, the separation of the membrane and cytosolic fractions was performed by a modification of the lysis buffer protocol. Briefly, tissue powder was homogenized (1 mol/L NaCl, 20 mmol/L Tris pH 7.4, 1 mmol/L DTT and protease inhibitors) and centrifuged. The supernatant was collected (referred to as the cytosolic fraction) and pellets were resuspended, and the membrane proteins were extracted by incubation in 500 mmol/L Tris-HCl pH 7.4, 20% sodium dodecyl sulfate, 100 mmol/L sodium orthovanadate, and protease inhibitors. The extract was centrifuged and the supernatant was collected as the membrane fraction.
# Protein concentration (in total myocardial tissue, in the cytoplasm fraction and in the membrane fraction) was quantified by the Pierce method. RhoA (Santa Cruz) was determined in total and cytosolic and membrane fractions of the ischemic cardiac tissue of all animals by Western Blot analysis. The intensity of the Western blot bands was detected with Chemi-Doc (Bio-Rad) and they were quantified with the Quantity one Software (Bio-Rad). Intensities are expressed in arbitrary units (AU).
# AMPK = AMPK activation (P-AMPK Thr172 / total AMPK) in pig myocardium by Western blot; conditions: for levels of P-AMPK: vs controls
# [5] = system: hypercholesterolemic pigs with myocardial ischemia; experiment: Hypercholesterolemic pigs, 90 min LAD balloon occlusion: early cardiac damage markers; assay type: in vivo; conditions: 0.3 mg/kg i.v. at 15 min of ischemia
# Protocol: To this end, 14 pigs were fed for 10 days a Western-type hypercholesterolemic diet [20%-saturated fat (beef tallow), 2%-cholesterol, 1%-cholic acid]. This hyperlipidemic diet contains 24.82% proteins, 64.20%of carbohydrates, 10.98% of fats and 16,834.7 kJ.
# After this 10 day diet period animals underwent a closed-chest 90 min mid-left anterior descending (LAD) coronary balloon occlusion and the same experimental design described in Example 1.
# [6] = system: pig model of ischemia and reperfusion; experiment: Pig model of ischemia and reperfusion (hypercholesterolemic diet, 90 min occlusion, 2.5 h reperfusion); assay type: in vivo, pigs; conditions: 0.3 mg/kg i.v. after 75 min of ischemia
# Protocol: Pigs were fed a hypercholesterolemic diet as in Example 11. After this 10-day diet period animals underwent a closed-chest 90 min mid-left anterior descending (LAD) coronary balloon occlusion. After 75 min of ischemia animals were randomized to intravenous infusion (femoral vein) of an active β-hydroxy acid derivative of simvastatin (R—OH—S; 0.3 mg/kg; n=12) or vehicle (0.9% NaCl; n=12). At minute 90, the balloon was deflated to achieve coronary artery reperfusion. Animals were reperfused for 2.5 h. Infarct size was determined morphometrically by Evan's Blue staining. To that end, 2.5 h post-reperfusion Evan's Blue dye was injected in the anesthetized pigs through the left atrium to outline the area-at-risk (AAR) after which the animals' hearts were arrested with potassium chloride and rapidly excised. Hearts were sectioned into 6 transverse slices parallel to the atrioventricular ring. Consecutive slices were alternatively collected for infarct size analysis (triphenyl tetrazolium chloride) and molecular studies of the ischemic and non-ischemic myocardium. Tissue samples obtained from the ischemic and non-ischemic myocardium all animals were pulverized and homogenized in Tripure® or lysis buffer for RNA and protein isolation, respectively. Protein levels of apoptosis markers (truncated-caspase-3) was assessed. Paraffin-embedded ischemic myocardial tissue of all animals was cut into 5-μm-thick slices for 8-hydroxyguanosine staining (Abcam ab48508), a measurement indicative of oxidative stress-induced DNA-damage, and OCT-embedded ischemic myocardial tissue of all animals was stained for neutrophil detection (anti-Neutrophil Elastase; Abcam). Staining was calculated by a single blinded observer from an average of 5-fields/animal as % of stained area. Images were captured by Nikon Eclipse 80i microscope and digitized by Retiga 1300i Fast camera. In addition, mitochondrial membrane potential (Δψm) was measured in the ischemic myocardium of all animals by flow cytometry using the ratiometric dye 5,5′,6,6′-tetrachloro-1,1′,3,3′-tetraethylbenzimidazol carbocyanine iodide (JC-1; Molecular Probes). Values were expressed as red fluorescence activity. Isolated mitochondria treated with valinomycin (Sigma), which decreases Δψm, were used as control (data not shown).
# [7] = system: mouse model of myocardial ischemia; experiment: Mouse coronary ligation model with AMPK inhibitor given before atorvastatin; assay type: in vivo, mice; conditions: Compound C 30 mg/kg i.p. prior to atorvastatin 0.3 mg/kg at 15 min of ischemia; 45 min ischemia
# Protocol: as §1
# as §2, with “For this purpose, all mouse hearts were immersed in fixative solution (4% paraformaldehyde), embedded in OCT compound and cross-sectioned from apex to base (10 μm thick sections 200 μm distanced).” left out
# In addition, myocardial oxidative damage was also assessed. […]
# [8] = ischemic myocardium, vs non-treated pigs
# [9] = prior (0 min) or post (90 min) ischemic induction
# [10] = 30, 60 and 90 min after MI induction, vs controls
# [11] = 90 min ischemic period, vs absence of treatment
# [12] = ischemic myocardial tissue, 2.5 h reperfusion
smiles,measurement,setting,value
CC(ONC(=O)c1cc(C(F)(F)F)cc(C(F)(F)F)c1)C(=O)Nc1ccc(Cl)cc1 (stereo not drawn) [CCG1423],reduction of oxidative damage (8-OH-dG staining) within the ischemic myocardium,[1],70%
same,reduction of size of infarction (% of total LV wall),[1],around 50%
CC(C)c1c(C(=O)Nc2ccccc2)c(-c2ccccc2)c(-c2ccc(F)cc2)n1CC[C@@H](O)C[C@@H](O)CC(=O)O [atorvastatin],MCP-1 mRNA expression,MCP-1/CCL2; [8],significantly reduced
same,MCP-1 protein expression,MCP-1/CCL2; [8],significantly reduced
same,MCP-1 expression,MCP-1/CCL2; non-ischemic myocardial tissue,No changes
same,reduction in neutrophil myocardial infiltration,[2],57%
same,reduction in scar size,rat model for ischemia,60%
same,"ischemia-triggered increase in MCP-1 expression, gene level",[3]; PBMC,markedly attenuated
same,"ischemia-triggered increase in MCP-1 expression, protein level",[3]; PBMC,markedly attenuated
same,TF PBMC expression (mRNA),[3]; [9],did not modify
same,TLR4 PBMC expression (mRNA),[3]; [9],did not modify
same,reduction of size of infarction (% of total LV wall),[1],around 50%
same,levels of cleaved (active) caspase 3,caspase-3; ischemic myocardium,reduced
same,total caspase-3,caspase-3; myocardium,no changes
same,ischemia-induced eNOS activation (P-eNOS/eNOS),eNOS,did not further enhance
same,IMA (Ischemic Modified Albumin) blood levels,[4]; [10],significantly reduced
same,Myoglobin blood levels,[4]; [10],significantly reduced
same,overall reduction of CFABP levels,[4]; [11],more than 75%
same,overall reduction of IMA levels,[4]; [11],more than 50%
same,overall reduction of myoglobin levels,[4]; [11],more than 75%
same,total amount of RhoA protein in the ischemic myocardium,"RhoA; 0.3 mg/kg i.v. at 15 min of ischemia, tissue at 90 min",not affected
same,RhoA activation in the ischemic myocardium,"RhoA; single dose after the onset of ischemia, infarcted pigs",inhibits
same,total protein content of AMPK,AMPK; entire heart,No changes
same,levels of P-AMPK,AMPK; ischemic myocardium,significantly increased
same,levels of P-AMPK,AMPK; non-ischemic cardiac tissue,No changes
same,CFABP,[5]; already at 30 min,significant reduction
same,IMA,[5]; already at 30 min,significant reduction
same,Myoglobin,[5]; already at 30 min,significant reduction
same,Percentage of reduction of CFABP,[5]; vs control,60-75%
same,Percentage of reduction of IMA,[5]; vs control,60-75%
same,Percentage of reduction of Myoglobin,[5]; vs control,60-75%
"CCC(C)(C)C(=O)OC1CC(C)C=C2C=CC(C)C(CCC(O)CC(O)CC(=O)O)C21 (stereo not drawn) [β-OH-simvastatin, β-hydroxy acid form of simvastatin]",size of myocardial damage (ischemic damage+reperfusion damage; infarct size),[6]; assessed 2.5 h after reperfusion,decreased
same,expression of cleaved caspase-3,[6]; [12],significantly reduced
same,mitochondrial potential (JC-1),[6]; [12],preserved
same,oxidative stress (8-hydroxyguanosine staining),[6]; [12],decreased
same,recruitment of neutrophils,[6]; [12],limited
same,reduction of size of infarction (% of total LV wall),[1],around 50%
c1cc(-c2cnn3cc(-c4ccc(OCCN5CCCCC5)cc4)cnc23)ccn1 [Compound C],effect on infarct size reduction achieved by atorvastatin,[7],abolished
same,effect on protection against oxidative damage (8-OHdG staining),[7],abolished
